Assays:
Type in all cases: cell-based
[1] = test system: REC-1 cells; assay: Human mantle cell lymphoma cell line REC-1 proliferation suppression test; details: Rec1, 72 h, compound 10 μM, 3 days, WST-8, read-out: cell survival rate (% of control) REC-1
Experimental: Example 53: Human Mantle Cell Lymphoma Cell Line REC-1 Proliferation Suppression Test
REC-1 cells (ATCC, CRL-3004) were suspended in medium B, and diluted as appropriate with 0.4% trypan blue solution (Sigma-Aldrich Co. LLC.). The number of viable cells was counted with a hemocytometer (Funakoshi Co., Ltd.). A cell suspension obtained by diluting with medium B such that the value obtained was 1.3×10^5 cells/mL was dispensed into a Falcon 96 well flat bottom plate (Corning Incorporated) at 75 μL/well, and culture was started at 37° C. under 5% CO2 stream. The next day, a solution obtained by diluting 4 mM DMSO solution of the test compound 100-fold with medium B was added by 25 μL to each well (final concentration of test compound 10 μM). 25 μL of a solution obtained by diluting DMSO 100-fold with medium B was added to the control well. After culturing at 37° C. in a 5% CO2 stream for 3 days, the cell proliferation activity was measured according to the instruction manual attached to WST-8 Kit (KISHIDA CHEMICAL Co., Ltd.).

[2] = test system: Pfeiffer cells; assay: Human diffuse large B-cell lymphoma cell line Pfeiffer proliferation suppression test; details: 144 h, compound 10 μM, 3 days + re-plating with compound 3 days, WST-8, read-out: cell survival rate (% of control) Pfeiffer
Description: Example 52: Human Diffuse Large B-Cell Lymphoma Cell Line Pfeiffer Proliferation Suppression Test
Pfeiffer cells (ATCC, CRL-2632) were suspended in medium B, and diluted as appropriate with 0.4% trypan blue solution (Sigma-Aldrich Co. LLC.). The number of viable cells was counted with a hemocytometer (Funakoshi Co., Ltd.). A cell suspension obtained by diluting with medium B such that the value obtained was 1.3×10^5 cells/mL was dispensed into a Falcon 96 well flat bottom plate (Corning Incorporated) at 75 μL/well, and culture was started at 37° C. under 5% CO2 stream. The next day, a solution obtained by diluting 4 mM DMSO solution of the test compound 100-fold with medium B was added by 25 μL to each well (final concentration of test compound 10 μM). 25 μL of a solution obtained by diluting DMSO 100-fold with medium B was added to the control well. After culturing at 37° C. in a 5% CO2 stream for 3 days, the cell culture medium was uniformly suspended with a multi channel pipette, 14 μL per well was transferred into another new Falcon 96 well flat bottom plate. A solution obtained by diluting 4 mM DMSO solution of the same test compound as the first time 400-fold with medium B was added by 86 μL to a total amount of 100 μL (final concentration of test compound 10 μM). After culturing at 37° C. in a 5% CO2 stream for 3 days, the cell proliferation activity was measured according to the instruction manual attached to WST-8 Kit (KISHIDA CHEMICAL Co., Ltd.).

[3] = test system: TNF-α production; assay: Human TNF-α production suppression test (LPS-stimulated peripheral blood mononuclear cells, ELISA); details: PBMC, 24 hr; for inhibition at 10 µg/mL: compound 10 μg/mL, control well = 100, read-out: TNF-α production suppressive rate (%)
Experimental: Example 50: Human TNF-α Production Suppression Test
Peripheral blood of a healthy adult was collected in a vacuum blood collection tube (Terumo, containing EDTA/2Na), and then diluted two-fold with an equal volume of OTSUKA NORMAL SALINE (Otsuka Pharmaceutical Co., Ltd.). The diluted blood was mixed with Lymphoprep (AXIS-SHIELD) in half the volume of the diluted blood, dispensed into a 15 mL conical tube, and centrifuged at room temperature for 20 min (2,100 rpm). The mononuclear cells accumulated at the interface between Lymphoprep and plasma was transferred to a 50 mL conical tube, diluted with OTSUKA NORMAL SALINE, and the mononuclear cells suspension was centrifuged at room temperature for 10 min (1,150 rpm) and then the supernatant was removed. The mononuclear cells fraction obtained as a precipitate was suspended in an appropriate amount of 10% fetal calf serum (Thermo Fisher Scientific)-containing RPMI1640 medium (Thermo Fisher Scientific, hereinafter abbreviated as medium A), and diluted as appropriate with 0.4% trypan blue solution (Sigma-Aldrich Co. LLC.). The number of viable cells was counted with a hemocytometer (ERMA INC.). It was diluted with medium A such that the value obtained was 5×10^5 cells/mL. On the other hand, 75 μL of medium A, 5 μL of 0.4 mg/mL test compound solution (DMSO solution 10-fold diluted with medium A), and 20 μL of 10 μg/mL lipopolysaccharide (Sigma-Aldrich Co. LLC.) solution (diluted with medium A) were each added in advance to the same well of a Falcon 96-well flat bottom plate (Corning Incorporated), and the above-mentioned cell suspension was dispensed at 0.1 mL/well. 5 μL of DMSO diluted 10-fold with medium A was added to the control well instead of the compound solution. After culturing at 37° C. in a 5% CO2 stream for 24 hr, the culture solution was centrifuged at 4° C., 1,000 rpm for 3 min and the supernatant was recovered. The content of TNF-α in the supernatant was measured using an ELISA kit (Peprotech) according to a conventional method. The amount of TNF-α produced in the well containing the test compound was determined with the amount of TNF-α produced in the control well as 100, and the suppression rate was calculated for each test.

With COc1ccc(COc2cscc2-c2cn(C3CCC(=O)NC3=O)nn2)cc1 (stereo not drawn) [compound 31, 3-{4-[4-(4-methoxybenzyloxy)thiophen-3-yl]-1H-1,2,3-triazol-1-yl}piperidine-2,6-dione] the viability at 10 µM [1] was 27%, the viability at 10 µM [2] was 82% and the inhibition at 3 µg/mL ([3]; suppressive rate at 3 μg/mL) was 82%.
O=C1CCC(n2cc(-c3ccc(Cl)s3)nn2)C(=O)N1 (stereo not drawn) [compound 11, 3-[4-(5-chlorothiophen-2-yl)-1H-1,2,3-triazol-1-yl]piperidine-2,6-dione] gave a viability at 10 µM [1] of 56%, a viability at 10 µM [2] of 114% and an inhibition at 10 µg/mL [3] of 81%.
With O=C1CCC(n2cc(-c3cscc3Br)nn2)C(=O)N1 (stereo not drawn) [compound 1, 3-[4-(4-bromothiophen-3-yl)-1H-1,2,3-triazol-1-yl]piperidine-2,6-dione] the viability at 10 µM [1] was 43%, the viability at 10 µM [2] was 89% and the inhibition at 10 µg/mL [3] was 90%.
For O=C1CCC(n2cc(-c3cscc3OCC3CC3)nn2)C(=O)N1 (stereo not drawn) [compound 28, 3-{4-[4-(cyclopropylmethoxy)thiophen-3-yl]-1H-1,2,3-triazol-1-yl}piperidine-2,6-dione], the viability at 10 µM [1] was 58%, the viability at 10 µM [2] was 91% and the inhibition at 10 µg/mL [3] was 37%.
With CN(C)Cc1ccc(COc2cscc2-c2cn(C3CCC(=O)NC3=O)nn2)cc1.Cl (stereo not drawn) [compound 46, 3-[4-(4-{4-[(dimethylamino)methyl]benzyloxy}thiophen-3-yl)-1H-1,2,3-triazol-1-yl]piperidine-2,6-dione hydrochloride] the viability at 10 µM [1] was 23%, the viability at 10 µM [2] was 84% and the inhibition at 10 µg/mL [3] was 80%.
For O=C1CCC(n2cc(-c3csc(CO)c3)nn2)C(=O)N1 (stereo not drawn) [compound 9, 3-{4-[5-(hydroxymethyl)thiophen-3-yl]-1H-1,2,3-triazol-1-yl}piperidine-2,6-dione], the viability at 10 µM [1] was 70%, the viability at 10 µM [2] was 100% and the inhibition at 10 µg/mL [3] was 41%.
For Cc1cscc1-c1cn(C2CCC(=O)NC2=O)nn1 (stereo not drawn) [compound 7, 3-[4-(4-methylthiophen-3-yl)-1H-1,2,3-triazol-1-yl]piperidine-2,6-dione], the viability at 10 µM [1] was 44%, the viability at 10 µM [2] was 101% and the inhibition at 10 µg/mL [3] was 73%.
In the case of O=C1CCC(n2cc(-c3ccsc3)nn2)C(=O)N1 (stereo not drawn) [compound 2, 3-[4-(thiophen-3-yl)-1H-1,2,3-triazol-1-yl]piperidine-2,6-dione], the viability at 10 µM [1] is reported as 36%, the viability at 10 µM [2] is reported as 80% and the inhibition at 10 µg/mL [3] is reported as 98%.
With O=C1CCC(n2cc(-c3cscc3OCc3ccncc3)nn2)C(=O)N1 (stereo not drawn) [compound 33, 3-{4-[4-(pyridin-4-ylmethoxy)thiophen-3-yl]-1H-1,2,3-triazol-1-yl}piperidine-2,6-dione] the viability at 10 µM [1] was 27%, the viability at 10 µM [2] was 71% and the inhibition at 10 µg/mL [3] was 100%.
COc1cc(-c2cn(C3CCC(=O)NC3=O)nn2)cs1 (stereo not drawn) [compound 20, 3-[4-(5-methoxythiophen-3-yl)-1H-1,2,3-triazol-1-yl]piperidine-2,6-dione] showed a viability at 10 µM [1] of 22%, a viability at 10 µM [2] of 81% and an inhibition at 10 µg/mL [3] of 87%.
O=C1CCC(n2cc(-c3cscc3OCc3cc4ccccc4s3)nn2)C(=O)N1 (stereo not drawn) [compound 47, 3-{4-[4-(benzo[b]thiophen-2-ylmethoxy)thiophen-3-yl]-1H-1,2,3-triazol-1-yl}piperidine-2,6-dione] was tested, and the viability at 10 µM [1] was 33%, the viability at 10 µM [2] was 99% and the inhibition at 10 µg/mL [3] was 63%.
For CCOc1cc(-c2cn(C3CCC(=O)NC3=O)nn2)cs1 (stereo not drawn) [compound 24, 3-[4-(5-ethoxythiophen-3-yl)-1H-1,2,3-triazol-1-yl]piperidine-2,6-dione], the viability at 10 µM [1] was 46%, the viability at 10 µM [2] was 91% and the inhibition at 10 µg/mL [3] was 75%.
Cl.O=C1CCC(n2cc(-c3cscc3OCc3ccc(CN4CCCCC4)cc3)nn2)C(=O)N1 (stereo not drawn) [compound 42, 3-(4-{4-[4-(piperidin-1-ylmethyl)benzyloxy]thiophen-3-yl}-1H-1,2,3-triazol-1-yl)piperidine-2,6-dione hydrochloride] gave a viability at 10 µM [1] of 13%, a viability at 10 µM [2] of 63% and an inhibition at 10 µg/mL [3] of 96%.
CCCCOc1cscc1-c1cn(C2CCC(=O)NC2=O)nn1 (stereo not drawn) [compound 25, 3-[4-(4-butoxythiophen-3-yl)-1H-1,2,3-triazol-1-yl]piperidine-2,6-dione] showed a viability at 10 µM [1] of 57%, a viability at 10 µM [2] of 84% and an inhibition at 10 µg/mL [3] of 49%.
O=C1CCC(n2nnc(-c3ccsc3)c2Cl)C(=O)N1 (stereo not drawn) [compound 4, 3-[5-chloro-4-(thiophen-3-yl)-1H-1,2,3-triazol-1-yl]piperidine-2,6-dione] showed a viability at 10 µM [1] of 93%, a viability at 10 µM [2] of 98% and an inhibition at 10 µg/mL [3] of 67%.
Work on Cc1cc(-c2cn(C3CCC(=O)NC3=O)nn2)cs1 (stereo not drawn) [compound 6, 3-[4-(5-methylthiophen-3-yl)-1H-1,2,3-triazol-1-yl]piperidine-2,6-dione] yielded a viability at 10 µM [1] of 52%, a viability at 10 µM [2] of 100% and an inhibition at 10 µg/mL [3] of 67%.
Work on O=C1CCC(n2cc(-c3cscc3OCc3ccc(CN4CCOCC4)cc3)nn2)C(=O)N1 (stereo not drawn) [compound 36, 3-(4-{4-[4-(morpholinomethyl)benzyloxy]thiophen-3-yl}-1H-1,2,3-triazol-1-yl)piperidine-2,6-dione] yielded a viability at 10 µM [1] of 2%, a viability at 10 µM [2] of 34% and an inhibition at 10 µg/mL [3] of 98%.
O=C1CCC(n2cc(-c3cscc3OCC3CCCCC3)nn2)C(=O)N1 (stereo not drawn) [compound 30, 3-{4-[4-(cyclohexylmethoxy)thiophen-3-yl]-1H-1,2,3-triazol-1-yl}piperidine-2,6-dione] gave a viability at 10 µM [1] of 49%, a viability at 10 µM [2] of 99% and an inhibition at 10 µg/mL [3] of 79%.
In the case of O=C1CCC(n2cc(-c3cscc3OCC3CCCC3)nn2)C(=O)N1 (stereo not drawn) [compound 29, 3-{4-[4-(cyclopentylmethoxy)thiophen-3-yl]-1H-1,2,3-triazol-1-yl}piperidine-2,6-dione], the viability at 10 µM [1] is reported as 86%, the viability at 10 µM [2] is reported as 110% and the inhibition at 10 µg/mL [3] is reported as 57%.
COc1c(-c2cn(C3CCC(=O)NC3=O)nn2)csc1C (stereo not drawn) [compound 15, 3-[4-(4-methoxy-5-methylthiophen-3-yl)-1H-1,2,3-triazol-1-yl]piperidine-2,6-dione] showed a viability at 10 µM [1] of 36%, a viability at 10 µM [2] of 87% and an inhibition at 10 µg/mL [3] of 85%.
O=C1CCC(n2cc(-c3cscc3OCc3cccc(CN4CCOCC4)c3)nn2)C(=O)N1 (stereo not drawn) [compound 39, 3-(4-{4-[3-(morpholinomethyl)benzyloxy]thiophen-3-yl}-1H-1,2,3-triazol-1-yl)piperidine-2,6-dione] gave a viability at 10 µM [1] of 24%, a viability at 10 µM [2] of 69% and an inhibition at 10 µg/mL [3] of 81%.
Work on Cl.O=C1CCC(n2cc(-c3cscc3OCc3ccc(CN4CCCC4)cc3)nn2)C(=O)N1 (stereo not drawn) [compound 41, 3-(4-{4-[4-(pyrrolidin-1-ylmethyl)benzyloxy]thiophen-3-yl}-1H-1,2,3-triazol-1-yl)piperidine-2,6-dione hydrochloride] yielded a viability at 10 µM [1] of 20%, a viability at 10 µM [2] of 72% and an inhibition at 10 µg/mL [3] of 93%.

— US11299485B2, “Thiophene derivative and use thereof” (FUJIMOTO CO., LTD., priority 2018, dated 2022)
